Data taken from patent publication US20070149576A1, “Means for protecting against technical materials” (priority 2003, published 2007).

How the values were obtained:
[1] = system: Hylotrupes bajulus (house longhorn beetle); assay: EN 46 determination of the prophylactic effect on egg larvae of Hylotrupes bajulus (laboratory test); type: in vivo; conditions: for activity threshold against wood-destroying beetles, EN 46 (with EN 84): after EN 84 leaching stress
[2] = system: Reticulitermes santonensis (termite); assay: EN 117 determination of the activity threshold against Reticulitermes santonensis (laboratory test); type: in vivo; conditions: for activity threshold against termites, EN 117 (with EN 84): after EN 84 leaching stress

## CC1(C)C(C=C(Cl)Cl)C1C(=O)OC(C#N)c1ccc(F)c(Oc2ccccc2)c1 (stereo not shown) [cyfluthrin]
[1]
  activity threshold against wood-destroying beetles, EN 46 (with EN 84): <0.006 g/m^2
  activity threshold against wood-destroying beetles, EN 46 (without stress): <0.006 g/m^2
[2]
  activity threshold against termites, EN 117 (with EN 84): 10-20 g/m^3

## CCOC(=O)NCCOc1ccc(Oc2ccccc2)cc1 [fenoxycarb]
[1]
  activity threshold against wood-destroying beetles, EN 46 (with EN 84): 0.050 g/m^2
  activity threshold against wood-destroying beetles, EN 46 (without stress): 0.005 g/m^2
[2]
  activity threshold against termites, EN 117 (with EN 84): ineffective
[2]; without stress
  activity threshold against termites, EN 117 (without stress): ineffective
